The results in this text go back to patent US20230242530A1, “8-(AZETIDIN-1-YL)-[1,2,4]TRIAZOLO[1,5-A]PYRIDINYL COMPOUNDS, COMPOSITIONS AND METHODS OF USE THEREOF” (Genentech, Inc., priority 2016, published 2023).

Assay [1] has as its target T1, isolated recombinant JAK1 kinase domain (Homo sapiens, UniProt P23458).
T1 construct: isolated recombinant JAK1 and JAK2 kinase domain
Put plainly: JAK enzyme assay, JAK1 kinase domain (Caliper LabChip). Format: biochemical. The conditions noted are these: 1.5 nM JAK1, ATP 25 μM, Morrison tight binding model. The gist of the method: (§1)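 Ki values were obtained by Morrison tight-binding analysis with ATP-competitive correction, Ki=Ki,app/(1+[ATP]/Km,app). Phosphorylated versus total fluorescent JAK3-derived peptide was quantified on a Caliper LabChip. Kinase reactions with the isolated recombinant domains ran 30 min at 22 °C before EDTA quench (50 mM final).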

The target of assay [2] is T2, isolated recombinant JAK2 kinase domain (Homo sapiens, UniProt O60674).
T2 construct: isolated recombinant JAK1 and JAK2 kinase domain
The assay can be described thus: JAK enzyme assay, JAK2 kinase domain (Caliper LabChip). The conditions noted are these: 0.2 nM JAK2, ATP 25 μM, Morrison tight binding model. The assay is classed as biochemical. In a few lines:
as §1

Assay [3] concerns JAK1-dependent STAT6 phosphorylation downstream of IL-13 stimulation in BEAS-2B cells. Put plainly: JAK1 pathway assay in cell lines: IL-13 p-STAT6 BEAS-2B. The conditions noted are these: BEAS-2B human bronchial epithelial cells, 1 hr compound, IL-13 15 min, MSD readout. Format: cell-based. The gist of the method:
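Phospho-STAT6 read by MSD electrochemiluminescence in lysates of BEAS-2B cells kept in complete growth medium. Cells were pretreated 1 hr at 37 °C with compound (0.2% DMSO final) and stimulated 15 min with IL-13 at its EC90; EC50 is the concentration halving signal versus DMSO.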

Molecules are shown by their SMILES.

T1 sequence (P23458 875-1153 limits assumed): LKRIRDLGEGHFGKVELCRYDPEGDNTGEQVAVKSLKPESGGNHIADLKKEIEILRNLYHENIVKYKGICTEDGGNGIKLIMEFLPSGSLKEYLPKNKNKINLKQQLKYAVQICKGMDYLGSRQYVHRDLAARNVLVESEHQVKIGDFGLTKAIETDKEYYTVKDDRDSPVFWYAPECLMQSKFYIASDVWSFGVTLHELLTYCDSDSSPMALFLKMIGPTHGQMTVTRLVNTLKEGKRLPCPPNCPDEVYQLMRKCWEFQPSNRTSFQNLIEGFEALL
T2 sequence (O60674 849-1124 limits assumed): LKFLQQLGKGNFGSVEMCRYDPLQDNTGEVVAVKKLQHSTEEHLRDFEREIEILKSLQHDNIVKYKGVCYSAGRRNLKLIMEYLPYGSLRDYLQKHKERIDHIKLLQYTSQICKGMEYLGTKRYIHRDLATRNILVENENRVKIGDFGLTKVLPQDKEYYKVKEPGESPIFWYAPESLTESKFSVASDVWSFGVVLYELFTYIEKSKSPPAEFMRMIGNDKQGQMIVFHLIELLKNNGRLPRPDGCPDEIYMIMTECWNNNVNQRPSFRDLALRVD

One may read the Ki as the equilibrium dissociation constant of an inhibitor or competing ligand from its target. What is called EC50 is the concentration needed to bring the measured effect to its halfway point. Low values mean higher potency in that assay, high ones lower potency in that assay. For the compound `CN1CCN(C(=O)Cc2ccc(Nc3nc4c(N5CC(CC#N)(n6cc(C(F)(F)F)cn6)C5)cccn4n3)cc2)CC1` [Example 116, formic acid;2-[1-[2-[4-[2-(4-methylpiperazin-1-yl)-2-oxo-ethyl]anilino]-[1,2,4]triazolo[1,5-a]pyridin-8-yl]-3-[4-(trifluoromethyl)pyrazol-1-yl]azetidin-3-yl]acetonitrile], the figures for the Ki in assay [1] and in assay [2] were 0.6 nM and 4 nM, respectively. In assay [3], this compound had an EC50 of 90 nM.

Turning to `COc1ccc(CCC2(CC#N)CN(c3cccn4nc(Nc5cnn(CC(=O)N6CCN(C)CC6)c5)nc34)C2)cc1` [Example 117, 2-[3-[2-(4-methoxyphenyl)ethyl]-1-[2-[[1-[2-(4-methylpiperazin-1-yl)-2-oxo-ethyl]pyrazol-4-yl]amino]-[1,2,4]triazolo[1,5-a]pyridin-8-yl]azetidin-3-yl]acetonitrile], the values for the Ki in assay [1] and in assay [2] were 0.4 nM and 2.4 nM, respectively. Besides, the EC50 in assay [3] came to 20 nM.

Turning to `Cc1ccccc1-c1cnn(C2(CC#N)CN(c3cccn4nc(Nc5cnn(CC(=O)N6CCC(NCC7(C#N)CC7)CC6)c5)nc34)C2)c1` [Example 118, 1-[[[1-[2-[4-[[8-[3-(cyanomethyl)-3-[4-(o-tolyl)pyrazol-1-yl]azetidin-1-yl]-[1,2,4]triazolo[1,5-a]pyridin-2-yl]amino]pyrazol-1-yl]acetyl]-4-piperidyl]amino]methyl]cycl opropanecarbonitrile], the Ki in assay [1] is 1.1 nM; in assay [2], 7.3 nM. The same compound showed an EC50 in assay [3] of 99 nM.

With `CSc1cnn(C2(CC#N)CN(c3cccn4nc(Nc5cnn(CC(=O)N6CCN(C)CC6)c5)nc34)C2)c1` [Example 119], the Ki in assay [1] came out at 0.3 nM; in assay [2], 0.2 nM. In addition, the EC50 in assay [3] came out at 16 nM.

In the case of `Cc1nn(C2(CC#N)CN(c3cccn4nc(Nc5cnn(CC(=O)N6CCN(C)CC6)c5)nc34)C2)cc1C1CCCCC1` [Example 120, 2-[3-(4-cyclohexyl-3-methyl-pyrazol-1-yl)-1-[2-[[1-[2-(4-methylpiperazin-1-yl)-2-oxo-ethyl]pyrazol-4-yl]amino]-[1,2,4]triazolo[1,5-a]pyridin-8-yl]azetidin-3-yl]acetonitrile], the Ki came out at 0.8 nM in assay [1] and 6.1 nM in assay [2]. The compound also displayed an EC50 in assay [3] of 46 nM.

Take `N#CCC1(n2cc(C(F)(F)F)cn2)CN(c2cccn3nc(Nc4ccc5c(c4)CCN(C4COC4)C5)nc23)C1` [Example 121, 2-[1-[2-[[2-(oxetan-3-yl)-3,4-dihydro-1H-isoquinolin-6-yl]amino]-[1,2,4]triazolo[1,5-a]pyridin-8-yl]-3-[4-(trifluoromethyl)pyrazol-1-yl]azetidin-3-yl]acetonitrile]: the figures for the Ki in assay [1] and in assay [2] were 0.5 nM and 4.4 nM, respectively. The compound also showed a concentration for a half-maximal effect (EC50) in assay [3] of 31 nM.

In the case of `Cc1ccccc1-c1cnn(C2(CC#N)CN(c3cccn4nc(Nc5cnn(CC(=O)N6CCN(C7COC7)CC6)c5)nc34)C2)c1` [Example 122, formic acid;2-[3-[4-(o-tolyl)pyrazol-1-yl]-1-[2-[[1-[2-[4-(oxetan-3-yl)piperazin-1-yl]-2-oxo-ethyl]pyrazol-4-yl]amino]-[1,2,4]triazolo[1,5-a]pyridin-8-yl]azetidin-3-yl]acetonitrile], the values for the Ki in assay [1] and in assay [2] were 0.5 nM and 3.7 nM, respectively. The compound also had an EC50 in assay [3] of 43 nM.

Consider `Cc1ccccc1-c1cnn(C2(CC#N)CN(c3cccn4nc(Nc5cnn(CC(=O)N6CCC(N7CCOCC7)CC6)c5)nc34)C2)c1` [Example 123], for which the Ki in assay [1] came out at 0.3 nM; in assay [2], 1.3 nM. Further, in assay [3], the EC50 worked out at 87 nM.

As for `Cc1ccccc1-c1cnn(C2(CC#N)CN(c3cccn4nc(Nc5cnn(CC(=O)N6CCC(N(C)C7COC7)CC6)c5)nc34)C2)c1` [Example 124], the Ki in assay [1] is 2 nM; in assay [2], 3.8 nM. The EC50 in assay [3] amounted to 85 nM.

For the compound `N#CCC1(n2cc(C(F)(F)F)cn2)CN(c2cccn3nc(Nc4cnn(CC(=O)N5CCN(CCO)CC5)c4)nc23)C1` [Example 125, formic acid;2-[1-[2-[[1-[2-[4-(2-hydroxyethyl)piperazin-1-yl]-2-oxo-ethyl]pyrazol-4-yl]amino]-[1,2,4]triazolo[1,5-a]pyridin-8-yl]-3-[4-(trifluoromethyl)pyrazol-1-yl]azetidin-3-yl]acetonitrile], the Ki in assay [1] and in assay [2] was 0.4 nM in each case. This compound also yielded an EC50 in assay [3] of 21 nM.

Take `CN1CCN(C(=O)Cn2cc(Nc3nc4c(N5CC(CC#N)(Cc6ccccc6Cl)C5)cccn4n3)cn2)CC1` [Example 126, 2-[3-[(2-chlorophenyl)methyl]-1-[2-[[1-[2-(4-methylpiperazin-1-yl)-2-oxo-ethyl]pyrazol-4-yl]amino]-[1,2,4]triazolo[1,5-a]pyridin-8-yl]azetidin-3-yl]acetonitrile]: the Ki amounted to 0.2 nM in assay [1] and 0.4 nM in assay [2]. The compound further gave an EC50 in assay [3] of 12 nM.

Regarding `CCc1cnn(C2(CC#N)CN(c3cccn4nc(Nc5cnn(C)c5)nc34)C2)c1` [Example 127, 2-(3-(4-ethyl-1H-pyrazol-1-yl)-1-(2-((1-methyl-H-pyrazol-4-yl)amino)-[1,2,4]triazolo[1,5-a]pyridin-8-yl)azetidin-3-yl)acetonitrile], the Ki in assay [1] is 0.2 nM; in assay [2], 0.4 nM. Besides, the concentration giving a half-maximal response (EC50) in assay [3] is 10 nM.

Turning to `N#CCC1(n2cc(Br)cn2)CN(c2cccn3nc(Nc4cn[nH]c4)nc23)C1` [Example 128, 2-[3-(4-bromopyrazol-1-yl)-1-[2-(1H-pyrazol-4-ylamino)-[1,2,4]triazolo[1,5-a]pyridin-8-yl]azetidin-3-yl]acetonitrile], the Ki in assay [1] and in assay [2] was 0.2 nM in each case. The EC50 in assay [3] was 8 nM.

As to `N#CCC1(n2cc(Br)cn2)CN(c2cccn3nc(Nc4cnn(CC(=O)N5CCN(C6CCOCC6)CC5)c4)nc23)C1` [Example 129, 2-[3-(4-bromopyrazol-1-yl)-1-[2-[[1-[2-oxo-2-(4-tetrahydropyran-4-ylpiperazin-1-yl)ethyl]pyrazol-4-yl]amino]-[1,2,4]triazolo[1,5-a]pyridin-8-yl]azetidin-3-yl]acetonitrile], the Ki in assay [1] was 0.3 nM; in assay [2], 0.8 nM. Also, the EC50 in assay [3] was 49 nM.

For `N#CCC1(n2cc(Br)cn2)CN(c2cccn3nc(Nc4cnn(CC(=O)N5CCC(N6CCOCC6)CC5)c4)nc23)C1` [Example 130, 2-[3-(4-bromopyrazol-1-yl)-1-[2-[[1-[2-(4-morpholino-1-piperidyl)-2-oxo-ethyl]pyrazol-4-yl]amino]-[1,2,4]triazolo[1,5-a]pyridin-8-yl]azetidin-3-yl]acetonitrile], the Ki stood at 0.4 nM in assay [1] and 1.1 nM in assay [2]. For the same compound, the response in assay [3] was half-maximal at 117 nM (EC50).

Take `N#CCC1(n2cc(C(F)(F)F)cn2)CN(c2cccn3nc(Nc4cn[nH]c4)nc23)C1` [Example 131, 2-[1-[2-(1H-pyrazol-4-ylamino)-[1,2,4]triazolo[1,5-a]pyridin-8-yl]-3-[4-(trifluoromethyl)pyrazol-1-yl]azetidin-3-yl]acetonitrile]: the Ki in assay [1] was determined as 0.2 nM; in assay [2] it was 0.4 nM. This compound gave an EC50 in assay [3] of 43 nM.

Regarding `Cn1cc(Nc2nc3c(N4CC(CC#N)(n5cc(Br)cn5)C4)cccn3n2)cn1` [Example 132, 2-[3-(4-bromopyrazol-1-yl)-1-[2-[(l-methylpyrazol-4-yl)amino]-[1,2,4]triazolo[1,5-a]pyridin-8-yl]azetidin-3-yl]acetonitrile], the Ki in assay [1] was 0.3 nM; in assay [2] it was 0.5 nM. In addition, in assay [3], the EC50 amounted to 51 nM.

Regarding `CCc1cnn(C2(CC#N)CN(c3cccn4nc(Nc5cnn(CCO)c5)nc34)C2)c1` [Example 133, 2-[3-(4-ethylpyrazol-1-yl)-1-[2-[[1-(2-hydroxyethyl)pyrazol-4-yl]amino]-[1,2,4]triazolo[1,5-a]pyridin-8-yl]azetidin-3-yl]acetonitrile], the Ki in assay [1] and in assay [2] was 0.3 nM throughout. In assay [3], the EC50 amounted to 12 nM.

For `N#CCC1(n2cc(C(F)(F)F)cn2)CN(c2cccn3nc(Nc4cnn(CCO)c4)nc23)C1` [Example 134, 2-[1-[2-[[1-(2-hydroxyethyl)pyrazol-4-yl]amino]-[1,2,4]triazolo[1,5-a]pyridin-8-yl]-3-[4-(trifluoromethyl)pyrazol-1-yl]azetidin-3-yl]acetonitrile], the Ki in assay [1] and in assay [2] was 0.3 nM throughout. Besides, the EC50 in assay [3] was found to be 13 nM.

Take `Cn1cc(Nc2nc3c(N4CC(CC#N)(n5cc(C(F)(F)F)cn5)C4)cccn3n2)cn1` [Example 135, 2-[1-[2-[(l-methylpyrazol-4-yl)amino]-[1,2,4]triazolo[1,5-a]pyridin-8-yl]-3-[4-(trifluoromethyl)pyrazol-1-yl]azetidin-3-yl]acetonitrile]: the Ki in assay [1] came to 0.3 nM; in assay [2], 0.5 nM. In assay [3], this compound showed an EC50 of 10 nM.

On to `N#CCC1(n2cc(C(F)(F)F)cn2)CN(c2cccn3nc(Nc4cnn(CCCO)c4)nc23)C1` [Example 136], for which the Ki in assay [1] came to 0.9 nM; in assay [2], 0.8 nM. The compound further had an EC50 in assay [3] of 20 nM.

For the compound `COc1cnn(C2(CC#N)CN(c3cccn4nc(Nc5cnn(C)c5)nc34)C2)c1` [Example 137, 2-[3-(4-methoxypyrazol-1-yl)-1-[2-[(l-methylpyrazol-4-yl)amino]-[1,2,4]triazolo[1,5-a]pyridin-8-yl]azetidin-3-yl]acetonitrile], the Ki in assay [1] was found to be 0.5 nM; in assay [2] it was 2.8 nM. The EC50 in assay [3] worked out at 39 nM.
